Measured values from patent US6383521B1, “Wondonin A and process for preparing the same” (Korea Ocean Research and Development, priority 2000, dated 2002).

How the values were obtained:
[1] = tested on: chick embryo chorioallantoic membrane; assay: Chick embryo chorioallantoic membrane assay; type: in vivo; details: ratio of embryos with avascular zone to total embryos; cover slip on CAM, 2 days incubation
Method: On day 3.5, a part of egg shell was cracked gently, and on day 4.5, a cover slip containing Wondonin A (prepared by drying […] Wondonin A in methanol on a cover slip) or a control cover slip (prepared by drying 2 μl of methanol on a cover slip) was placed on the chorioallantoic membrane (CAM) through the crack and then the crack was sealed. After incubation for 2 days, 10% fat emulsion was injected to CAM, which was examined under a microscope. The embryos with a clear avascular zone (inhibition of angiogenesis) were counted and inhibitory effect of Wondonin A on angiogenesis was evaluated by calculating the ratio of the number of embryo with avascular zone to the total number of embryo tested (see: Table 2).

[2] = tested on: Human umbilical vascular endothelial cells (HUVEC); assay: Invasion assay of HUVEC through Matrigel/Type IV collagen coated filter; type: cell-based; details: 10 μg/ml Wondonin A medium, bFGF, 18 hours
Method: Powdered medium 199 (M 199, Sigma Chemical Co., U.S.A.) and 2.2 g (per liter) of sodium bicarbonate was dissolved in double distilled water, pH of the medium was adjusted to 7.2 with HCl, and followed by sterile filtration on a […] Millipore filter. Then, a medium was finally prepared by supplementing, just before use, with 20% (w/v) FBS (fetal bovine serum ), 1% (w/v) Penicillin-Streptomycin (P-S), 3 ng/ml bFGF (basic fibroblast growth factor, a growth factor for angiogenesis) and 100 μg/ml heparin. Human umbilical vascular endothelial cells (“HUVEC”) purchased from ATCC (American Type Culture Collection) were seeded to 6 ml of the medium thus prepared in a T25 flask (25 cm^2) and grown to form a monolayer in an incubator at 37° C. under an environment of 5% (v/v) CO2 and saturated humidity, and then subcultured in a medium containing 0.05% (w/v) Trypsin-EDTA.
For invasion assay, lower surface of the polycarbonate filter (pore size: 8 μm) equipped in an insert chamber was coated with 5 μg of Type IV collagen and upper surface of the filter was coated with 25 μg of Matrigel (Collaborative Research, Inc., Waltham, Mass., U.S.A.). […] After staining of the fixed cells with haematoxillin and eosin, Matrigel was detached from the filter and HUVEC cells which have passed through the filter were counted. […]

[3] = tested on: vascular endothelial cells; assay: Viability of vascular endothelial cells (Trypan Blue); type: cell-based, Human; details: 48 hour incubation, medium without FBS
Method: Vascular endothelial cells grown on Example 3 were placed onto a 24-well plate with 5×10^4 cells/well starting cell number in 1 ml (per well) of the same medium as in Example 3 except for containing 10% (v/v) FBS, and incubated at 37° C. under an environment of 5% (v/v) CO2 for 24 hours to the level of 80% cell confluency. Then, cells were rinsed with 1 ml of PBS and 1 ml of the same medium without FBS was added and then Wondonin A was added to reach the concentrations of […], respectively. After 48 hour incubation, medium was removed and cells were harvested by trypsinization. Cells were stained in a medium containing 0.4% (w/v) Trypan Blue at room temperature and then counted with haemacytometer. The cell viability was assessed based on total cell number and stained cell number (see: Table 1).

[4] = Physicochemical data of Wondonin A
Excerpt: The spectrophotomeric data of Wondonin A are as follows: […]

With `CN(C)CCc1cn(C(c2ccc(O)c(O)c2)C2Oc3ccc(/C=C/OS(=O)(=O)[O-])cc3O2)cn1.[Na+]` (stereo not drawn) [Wondonin A] the “Inhibition of angiogenesis (%)” value [1] was 89%, the “reduction in a cell number passed through the filter compared to the control group” value [2] was 66% and the “Viability (%)” value ([3]; Wondonin A 1 μg/ml) was 98%. The “Viability (%)” value ([3]; Wondonin A 10 μg/ml) was 97%, the “solubility in polar organic solvents” value ([4]; methanol and dimethylsulfoxide) was “highly soluble” and the stability ([4]; pale-yellow semi-solid at room temperature) was “stable”.
